Test results: publication PMC3792216 (Biomolecules & Therapeutics, 2012)

Tests used:
[1] = target: estrogen receptor alpha (hERα) (Homo sapiens, UniProt P03372); assay: competitive displacement of [3H]-E2 radioligand, filter binding
[2] = target: estrogen receptor beta (hERβ) (Homo sapiens, UniProt Q92731); assay: as above
estrogen receptor beta (hERβ), sequence (Q92731 whole entry): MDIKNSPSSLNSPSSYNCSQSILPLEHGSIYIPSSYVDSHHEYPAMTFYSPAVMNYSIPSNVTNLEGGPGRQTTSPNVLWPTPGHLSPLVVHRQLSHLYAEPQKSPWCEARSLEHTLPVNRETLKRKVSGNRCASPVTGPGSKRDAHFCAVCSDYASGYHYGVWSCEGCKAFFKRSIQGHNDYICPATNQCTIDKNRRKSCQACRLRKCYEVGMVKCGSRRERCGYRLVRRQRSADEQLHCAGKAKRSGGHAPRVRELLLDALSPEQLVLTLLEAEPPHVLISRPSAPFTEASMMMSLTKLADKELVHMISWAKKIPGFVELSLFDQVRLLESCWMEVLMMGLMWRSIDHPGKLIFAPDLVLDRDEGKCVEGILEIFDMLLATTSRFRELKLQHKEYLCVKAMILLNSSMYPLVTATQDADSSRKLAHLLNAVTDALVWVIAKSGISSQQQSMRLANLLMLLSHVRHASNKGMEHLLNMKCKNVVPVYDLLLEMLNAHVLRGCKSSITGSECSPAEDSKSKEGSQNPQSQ

estrogen receptor alpha (hERα), sequence (P03372 whole entry): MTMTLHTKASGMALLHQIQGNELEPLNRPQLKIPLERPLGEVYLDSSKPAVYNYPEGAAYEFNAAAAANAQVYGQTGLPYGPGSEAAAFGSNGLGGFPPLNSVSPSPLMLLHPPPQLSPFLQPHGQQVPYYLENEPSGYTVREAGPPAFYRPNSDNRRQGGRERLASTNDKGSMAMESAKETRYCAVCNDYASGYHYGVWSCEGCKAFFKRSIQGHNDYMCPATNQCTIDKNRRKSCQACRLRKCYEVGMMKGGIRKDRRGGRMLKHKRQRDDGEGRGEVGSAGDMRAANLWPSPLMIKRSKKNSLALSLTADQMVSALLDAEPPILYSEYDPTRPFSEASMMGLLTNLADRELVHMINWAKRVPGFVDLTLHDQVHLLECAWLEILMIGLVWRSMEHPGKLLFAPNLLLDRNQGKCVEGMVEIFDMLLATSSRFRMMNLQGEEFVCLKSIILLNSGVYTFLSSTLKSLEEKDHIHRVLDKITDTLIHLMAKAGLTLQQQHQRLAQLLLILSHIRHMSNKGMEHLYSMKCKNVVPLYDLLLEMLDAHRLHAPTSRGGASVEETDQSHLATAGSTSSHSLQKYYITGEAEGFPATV

CC(C)=CCc1cc2c(cc1O)O[C@H](c1ccc(O)cc1)CC2=O [bavachin]
IC50 [1]: 65.7 µM | IC50 [2]: 38 µM
